Data on 9 molecules can be found in patent US20260315464A1, “COMPOSITIONS, METHODS, AND SYSTEMS FOR MODULATING SPLICING OF MSH3” (REVIR THERAPEUTICS, INC., priority 2023, published 2026).

This test concerns MSH3. The test can be described thus: QPCR assay for levels of MSH3 upon compound treatment in HEK293T or AD293 cells (fold-change of MSH3 transcript, EC50 of MSH3 downregulation; total MSH3 exons 13/14, exons 20/21; Table 8). It is filed as cell-based. Particulars: Homo sapiens, fold-change of the MSH3 transcript, normalized to GAPDH; for mrna remaining at 1 µM: 1 μM compound; for mrna remaining at 10 µM: 10 μM compound. Here is the method:
HEK293T or AD293 cells were treated with Compound 274 at 1 μM and […]. RNA, cDNA and qPCR was prepared using TaqMan Cells-to-CT Express kit (ThermoFisher Scientific). Taqman assays (ThermoFisher Scientific) were used for quantification of total MSH3 exons 13/14 (cat #4351372, ID #: Hs00988993_ml), total MSH3 exons 20/21 (cat #4351372, ID #: Hs00989000_ml), exon 13/PE14A (Fwd: 5′-[…]; Rev: 5′-[…]; Probe: 5′-[…]) and exon 20/PE21A (Fwd: 5′-[…]; Rev: 5′-[…]; Probe: 5′-[…]) mRNA expression. Taqman GAPDH (cat #4448489, ID #: Hs02758991_g1) was used as a reference for data normalization.

Each structure is given as a SMILES string.

As for `Cn1nc(Cl)c(-c2cc(F)c3c(c2)C(=O)N(c2ccc(N4CCN5CCC[C@H]5C4)nn2)C3)n1` [Compound 671, (S)-6-(5-chloro-2-methyl-2H-1,2,3-triazol-4-yl)-4-fluoro-2-(6-(hexahydropyrrolo[1,2-a]pyrazin-2(1H)-yl)pyridazin-3-yl)isoindolin-1-one], the mrna remaining at 1 µM was found to be 94% and the mrna remaining at 10 µM amounted to 47%.
The corresponding values for `Cn1ncc(-c2cc3c(c(Cl)n2)CN(c2ccc(O[C@H]4C[C@]5(C)CC[C@](C)(C4)N5)nn2)C3=O)n1` [Compound 106, 4-chloro-2-(6-(((1R,3s,5S)-1,5-dimethyl-8-azabicyclo[3.2.1]octan-3-yl)oxy)pyridazin-3-yl)-6-(2-methyl-2H-1,2,3-triazol-4-yl)-2,3-dihydro-1H-pyrrolo[3,4-c]pyridin-1-one] are 121% and 130%.
For `Cc1nn(C)nc1-c1cc(F)c2c(c1)C(=O)N(c1ccc(N3CC4(CNC4)C3)nn1)C2` [Compound 666, 2-(6-(2,6-diazaspiro[3.3]heptan-2-yl)pyridazin-3-yl)-6-(2,5-dimethyl-2H-1,2,3-triazol-4-yl)-4-fluoroisoindolin-1-one], the mrna remaining at 1 µM came out at 97% and the mrna remaining at 10 µM worked out at 59%.
For `CN(c1ccc(N2Cc3ncc(-c4cnn(CC(C)(C)O)c4)cc3C2=O)nn1)[C@H]1C[C@]2(C)CC[C@](C)(C1)N2` [Compound 604, 6-(6-(((1R,3s,5S)-1,5-dimethyl-8-azabicyclo[3.2.1]octan-3-yl)(methyl)amino)pyridazin-3-yl)-3-(1-(2-hydroxy-2-methylpropyl)-1H-pyrazol-4-yl)-6,7-dihydro-5H-pyrrolo[3,4-b]pyridin-5-one] the same measures were 63% and 93%.
For `Cn1nc(Cl)c(-c2cc3c(cn2)CN(c2ccc(O[C@H]4C[C@]5(C)CC[C@](C)(C4)N5)nn2)C3=O)n1` [Compound 460, 6-(5-chloro-2-methyl-2H-1,2,3-triazol-4-yl)-2-(6-(((1R,3s,5S)-1,5-dimethyl-8-azabicyclo[3.2.1]octan-3-yl)oxy)pyridazin-3-yl)-2,3-dihydro-1H-pyrrolo[3,4-c]pyridin-1-one] the same measures were 80% and 25%.
The corresponding values for `CCN1CC2CN(c3ccc(N4Cc5c(F)cc(-c6nn(C)nc6Cl)cc5C4=O)nn3)CC2C1` (stereo not drawn) [Compound 654, 6-(5-chloro-2-methyl-2H-1,2,3-triazol-4-yl)-2-(6-(5-ethylhexahydropyrrolo[3,4-c]pyrrol-2(1H)-yl)pyridazin-3-yl)-4-fluoroisoindolin-1-one] are 90% and 61%.
Regarding `Cc1nn(C)cc1-c1cnc2c(c1)C(=O)N(c1ccc(S[C@H]3C[C@]4(C)CC[C@](C)(C3)N4)nn1)C2` [Compound 490, 3-(1,3-dimethyl-1H-pyrazol-4-yl)-6-(6-(((1R,3s,5S)-1,5-dimethyl-8-azabicyclo[3.2.1]octan-3-yl)thio)pyridazin-3-yl)-6,7-dihydro-5H-pyrrolo[3,4-b]pyridin-5-one], the mrna remaining at 1 µM was found to be 90% and the mrna remaining at 10 µM was 25%.
For `Cn1nc(Cl)c(-c2cc(F)c3c(c2)C(=O)N(c2ccc(N4CC5(CCNC5)C4)nn2)C3)n1` [Compound 644, 2-(6-(2,6-diazaspiro[3.4]octan-2-yl)pyridazin-3-yl)-6-(5-chloro-2-methyl-2H-1,2,3-triazol-4-yl)-4-fluoroisoindolin-1-one] the same measures were 87% and 97%.
The corresponding values for `Cc1nn(C)nc1-c1ccc2c(c1)C(=O)N(c1ccc(O[C@H]3C[C@]4(C)CC[C@](C)(C3)N4)nn1)C2` [Compound 439, 6-(2,5-dimethyl-2H-1,2,3-triazol-4-yl)-2-(6-(((1R,3s,5S)-1,5-dimethyl-8-azabicyclo[3.2.1]octan-3-yl)oxy)pyridazin-3-yl)isoindolin-1-one] are 87% and 72%.
